In patent publication US10703784B2, “Antigens and epitopes derived from Mycobacterium tuberculosis” (priority 2011, dated 2020):
Values joined by “and” are separate entries in the source; they are usually repeats but may differ in a detail not shown here. Equal entries are not always repeated. Where two headings read alike, the source gives them in different places.

B1: Rv1441c: MTB protein, novel CD4 T cell antigen; PE/PPE (protein, listed as Mycobacterium tuberculosis)
chain: MSNVMVVPGMLSAAAADVASIGAALSAANGAAAPTTAGVLAAGADEVSAAIASLFSGYARDYQALSAQMARFHQQFVQALTASVGSYAAAEAANASPLQALEQQVLAAINAPTQTLLGRPLIGNGADGLPGQNGGAGGLLWGNGGNGGAGDAAHPNGGNGGDAGMFGNGGAGGAGYSPAAGTGAAGGAGGAGGAGGWLSGNGGAGGNGGTGASGADGGGGLPPVPASPGGNGGGGDAGGAAGMFGTGGAGGTGGDGGAGGAGDSPNSGANGARGGDGGNGAAGGAGGRLFGNGGAGGNGGTAGQGGDGGTALGAGGIGGDGGTGGAGGTGGTAGIGGSSAGAGGAGGDGGAGGTGGGSSMIGGKGGTGGNGGVGGTGGASALTIGNGSSAGAGGAGGAGGTGGTGGYIESLDGKGQAGNGGNGGNGAAGGAGGGGTGAGGNGGAGGNGGDGGPSQGGGNPGFGGDGGTGGPGGVGVPDGIGGANGAQGKHG
B2: Rv1317c: MTB protein, novel CD4 T cell antigen; Information pathways (protein, listed as Mycobacterium tuberculosis)
chain: MHDDFERCYRAIQSKDARFDGWFVVAVLTTGVYCRPSCPVRPPFARNVRFLPTAAAAQGEGFRACKRCRPDASPGSPEWNVRSDVVARAMRLIADGTVDRDGVSGLAAQLGYTIRQLERLLQAVVGAGPLALARAQRMQTARVLIETTNLPFGDVAFAAGFSSIRQFNDTVRLACDGTPTALRARAAARFESATASAGTVSLRLPVRAPFAFEGVFGHLAATAVPGCEEVRDGAYRRTLRLPWGNGIVSLTPAPDHVRCLLVLDDFRDLMTATARCRRLLDLDADPEAIVEALGADPDLRAVVGKAPGQRIPRTVDEAEFAVRAVLAQQVSTKAASTHAGRLVAAYGRPVHDRHGALTHTFPSIEQLAEIDPGHLAVPKARQRTINALVASLADKSLVLDAGCDWQRARGQLLALPGVGPWTAEVIAMRGLGDPDAFPASDLGLRLAAKKLGLPAQRRALTVHSARWRPWRSYATQHLWTTLEHPVNQWPPQEKIA
B3: Rv0985c: MTB protein, novel CD4 T cell antigen; Cell wall and cell processes (protein, listed as Mycobacterium tuberculosis)
chain: MLKGFKEFLARGNIVDLAVAVVIGTAFTALVTKFTDSIITPLINRIGVNAQSDVGILRIGIGGGQTIDLNVLLSAAINFFLIAFAVYFLVVLPYNTLRKKGEVEQPGDTQVVLLTEIRDLLAQTNGDSPGRHGGRGTPSPTDGPRASTESQ
B4: Rv3024c: MTB protein, novel CD4 T cell antigen; Information pathways, Island 2 (protein, listed as Mycobacterium tuberculosis)
chain: MKVLAAMSGGVDSSVAAARMVDAGHEVVGVHMALSTAPGTLRTGSRGCCSKEDAADARRVADVLGIPFYVWDFAEKFKEDVINDFVSSYARGETPNPCVRCNQQIKFAALSARAVALGFDTVATGHYARLSGGRLRRAVDRDKDQSYVLAVLTAQQLRHAAFPIGDTPKRQIRAEAARRGLAVANKPDSHDICFIPSGNTKAFLGERIGVRRGVVVDADGVVLASHDGVHGFTIGQRRGLGIAGPGPNGRPRYVTAIDADTATVHVGDVTDLDVQTLTGRAPVFTAGAAPSGPVDCVVQVRAHGETVSAVAELIGDALFVQLHAPLRGVARGQTLVLYRPDPAGDEVLGSATIAGASGLSTGGNPGA
B5: Rv0987: MTB protein, novel CD4 T cell antigen; Cell wall and cell processes (protein, listed as Mycobacterium tuberculosis)
chain: MNDQAPVAYAPLWRTAWRRLRQRPFQYILLVLGIALGVAMIVAIDVSSNSAQRAFDLSAAAITGKSTHRLVSGPAGVDQQLYVDLRRHGYDFSAPVIEGYVLARGLGNRAMQFMGTDPFAESAFRSPLWSNQNIAELGGFLTRPNGVVLSRQVAQKYGLAVGDRIALQVKGAPTTVTLVGLLTPADEVSNQKLSDLIIADISTAQELFHMPGRLSHIDLIIKDEATATRIQQRLPAGVRMETSDTQRDTVKQMTDAFTVNLTALSLIALLVGIFLIYNTVTFNVVQRRPFFAILRCLGVTREQLFWLIMTESLVAGLIGTGLGLLIGIWLGEGLIGLVTQTINDFYFVINVRNVSVSAESLLKGLIIGIFAAMLATLPPAIEAMRTVPASTLRRSSLESKITKLMPWLWVAWFGLGSFGVLMLWLPGNNLVVAFVGLFSVLIALALIAPPLTRFVMLRLAPGLGRLLGPIGRMAPRNIVRSLSRTSIAIAALMMAVSLMVGVSISVGSFRQTLANWLEVTLKSDVYVSPPTLTSGRPSGNLPVDAVRNISKWPGVRDAVMARYSSVFAPDWGREVELMAVSGDISDGKRPYRWIDGNKDTLWPRFLAGKGVMLSEPMVSRQHLQMPPRPITLMTDSGPQTFPVLAVFSDYTSDQGVILMDRASYRAHWQDDDVTTMFLFLASGANSGALIDQLQAAFAGREDIVIQSTHSVREASMFIFDRSFTITIALQLVATVVAFIGVLSALMSLELDRAHELGVFRAIGMTTRQLWKLMFIETGLMGGMAGLMALPTGCILAWILVRIINVRSFGWTLQMHFESAHFLRALLVAVVAALAAGMYPAWRLGRMTIRTAIREE
B6: Rv0690c: MTB protein, novel CD4 T cell antigen; Conserved hypotheticals (protein, listed as Mycobacterium tuberculosis)
chain: MTGTEHLVHTLRSQGRVCTSSGSPMYRELLELVAADVESGGVFASILADQKGAPEGQAVPLRLLGGLHRMVLDGRAPVLRRWYPSTGGTWQAEAAWPDIVRTATDQPESLRAALDRPPQTNEVGRSAALIGGLLIACLQFDLPIRLFEIGSSAGLNLRPDRYRYRYLGGEWGLADSPVRIDNAWLGELPPTATVRIVERHGYDIAPIDVTSPDGELNALSYIWPDQTDRLERLRGAIAVARNIPADLHRQAAHAAVAGMTLTDDALTVLWHSITWQYLPADERAAIRAGIDALAAQADAHCPFVHLTLEPAHQRPGAQIKYLVRMRSWPGGHARVLGECHPHGPPVTWQ
B7: Rv2490c: MTB protein, novel CD4 T cell antigen; PE/PPE (protein, listed as Mycobacterium tuberculosis)
chain: MQSMSFDPAVADIGSQVVNNAFQGLQAGAVAWVSLSSLLPAGAEEVSAWAVTAFTTAATGLLALNQAAQEELRKAGEVFTAIARMYSDADVRAAACLLEAIPRPGQTLARE
B8: Rv0290: MTB protein, novel CD4 T cell antigen; Cell wall and cell processes, Island 1, Esx-3 (protein, listed as Mycobacterium tuberculosis)
chain: MSGTVMQIVRVAILADSRLTEMALPAELPLREILPAVQRLVVPSAQNGDGGQADSGAAVQLSLAPVGGQPFSLDASLDTVGVVDGDLLVLQPVPAGPAAPGIVEDIADAAMIFSTSRLKPWGIAHIQRGALAAVIAVALLATGLTVTYRVATGVLAGLLAVAGIAVASALAGLLITIRSPRSGIALSIAALVPIGAALALAVPGKFGPAQVLLGAAGVAAWSLIALMIPSAERERVVAFFTAAAVVGASVALAAGAQLLWQLPLLSIGCGLIVAALLVTIQAAQLSALWARFPLPVIPAPGDPTPSAPPLRLLEDLPRRVRVSDAHQSGFIAAAVLLSVLGSVAIAVRPEALSVVGWYLVAATAAAATLRARVWDSAACKAWLLAQPYLVAGVLLVFYTATGRYVAAFGAVLVLAVLMLAWVVVALNPGIASPESYSLPLRRLLGLVAAGLDVSLIPVMAYLVGLFAWVLNR
B9: Rv1172c: MTB protein, novel CD4 T cell antigen; PE/PPE (protein, listed as Mycobacterium tuberculosis)
chain: MSFVFAAPEALAAAAADMAGIGSTLNAANVVAAVPTTGVLAAAADEVSTQVAALLSAHAQGYQQLSRQMMTAFHDQFVQALRASADAYATAEASAAQTMVNAVNAPARALLGHPLISADASTGGGSNALSRVQSMFLGTGGSSALGGSAAANAAASGALQLQPTGGASGLSAVGALLPRAGAAAAAALPALAAESIGNAIKNLYNAVEPWVQYGFNLTAWAVGWLPYIGILAPQINFFYYLGEPIVQAVLFNAIDFVDGTVTFSQALTNIETATAASINQFINTEINWIRGFLPPLPPISPPGFPSLP
B10: Rv1366: MTB protein, novel CD4 T cell antigen; Conserved hypotheticals (protein, listed as Mycobacterium tuberculosis)
chain: MVVALVGSAIVDLHSRPPWSNNAVRRLGVALRDGVDPPVDCPSYAEVMLWHADLAAEVQDRIEGRSWSASELLVTSRAKSQDTLLAKLRRRPYLQLNTIQDIAGVRIDADLLLGEQTRLAREIADHFGADQPAIHDLRDHPHAGYRAVHVWLRLPAGRVEIQIRTILQSLWANFYELLADAYGRGIRYDERPEQLAAGVVPAQLQELVGVMQDASADLAMHEAEWQHCAEIEYPGQRAMALGEASKNKATVLATTKFRLERAINEAESAGGGG

Assays:
[1] = system: PBMCs depleted of CD4+ or CD8+ T cells; assay type: cell-based, human
[2] = system: PBMCs from LTBI donors (IFN-γ production); assay type: cell-based, human; settings: for Resp. freq.: fraction of 28 LTBI donors responding to epitopes of the antigen; for Resp. freq. / Total SFC: ex vivo IFN-γ ELISPOT; for Total SFC: total spot-forming cells, LTBI donors
[3] = phenotype of the responding T cells per donor, n.d. = assay not done
[4] = individual MTB epitope peptide, one value per responding LTBI donor

Molecule | T cell phenotype [1, 3] | SFC [2, 4] | Resp. freq. [2] | Total SFC [2] | further results
AAASWDALAAELASA | CD4 | 217.5 and 130.0 and 440.8 |  |  | 
AAGGWDSLAAELATT | CD4 and undetectable | 130.0 and 31.7 |  |  | 
AAIHEMFVNTLQMSS | CD8 | 25.0 and 165.0 |  |  | 
AAIHEMFVNTLVASS | CD8 and undetectable (2×) | 41.7 and 160.0 and 26.7 and 61.7 |  |  | 
AALPLLFFALAGQRI | CD4 (3×) and undetectable (2×) | 81.7 and 36.7 and 33.3 and 143.3 and 45.0 |  |  | 
AATQARAAAAAFEAA | undetectable | 25.0 |  |  | 
AAVPAVGAAAGAPAA | CD4 (2×) and undetectable (2×) | 203.3 and 28.3 and 20.0 and 30.0 |  |  | 
ADYLRMWIQAATVMS | CD4 (5×) and undetectable | 375.0 and 35.0 and 128.3 and 48.3 and 26.7 and 75.0 |  |  | 
AEAPAAAAAPEEQVQ | CD4 | 20.0 |  |  | 
AELMILIATNLLGQN | CD4 and undetectable | 33.3 and 90.0 |  |  | 
AGCQTYKWETFLTSE |  |  |  |  | T cell phenotype [1]: CD4 and undetectable; SFC [2]: 60.0 and 55.8 and 36.7 and 51.7
ALLPRAGAAAAAALP | CD4 | 45.0 and 26.7 |  |  | 
ALQSHDDVALVSVMW | CD4 and undetectable | 28.3 and 61.7 |  |  | 
AVLVATNFFGINTIP |  |  |  |  | T cell phenotype [1]: CD4 and undetectable
GAMVATNFFGINTIP |  |  |  |  | T cell phenotype [1]: CD4 and undetectable
B1 |  |  | 11% | 86 SFC | 
B2 |  |  | 11% | 97 SFC | 
B3 |  |  | 11% | 70 SFC | 
B4 |  |  | 32% | 1630 SFC | 
B5 |  |  | 11% | 133 SFC | 
B6 |  |  | 11% | 233 SFC | 
B7 |  |  | 11% | 64 SFC | 
B8 |  |  | 29% | 1552 SFC | 
B9 |  |  | 11% | 237 SFC | 
B10 |  |  | 11% | 308 SFC | 
